Reference: article PMC4965013, “Open Source Drug Discovery with the Malaria Box Compound Collection for Neglected Diseases and Beyond” (PLoS Pathogens, 2016)
One block for each compound: values may come before it.

Columns and labels:
[1] = system: P. falciparum 3D7 trophozoites; test: Metabolomic fingerprint profiling LC-MS; type: cell-based, Plasmodium falciparum; design: UDP-D-glucose / ADP-D-glucose: unit not given here; conditions: for Acetyllysine / N-acetyl-L-ornithine / N-carbamoyl-L-aspartate / NADPH / dAMP / dCMP / dTDP / dTMP / dTTP / dihydroorotate / orotate / DLH / DLS/SDL/SID / PD / PEE / PVNF / 3-phosphoglycerate / ADP-D-glucose / ATP / CDP / D-sedoheptulose-1/7-phosphate / FAD / GMP / NAD+ / NADP+ / Octoluse Bisphosphate / Pyroglutamic acid / UDP-D-glucose / UDP-D-glucuronate / UDP-N-acetyl-glucosamine / UDP / UMP / UTP / a-ketoglutarate / citrate/isocitrate / cytidine / dATP / dGMP/AMP / fumarate / glucose-1/6-phosphate / glycerate / guanine / guanosine / hypoxanthine / indole / inosine / nicotinate / ornithine / phosphoenolpyruvate / pyruvate / ribose-phosphate / sarcosine/alanine / sn-glycerol-3-phosphate / succinate/methylmalonic acid / uridine / xanthosine: S2 Table Metabolomics; for Acetyllysine: metabolite Acetyllysine; for N-acetyl-L-ornithine: metabolite N-acetyl-L-ornithine; for N-carbamoyl-L-aspartate: metabolite N-carbamoyl-L-aspartate; for NADPH: metabolite NADPH; for dAMP: metabolite dAMP; for dCMP: metabolite dCMP; for dTDP: metabolite dTDP; for dTMP: metabolite dTMP; for dTTP: metabolite dTTP; for dihydroorotate: metabolite dihydroorotate; for orotate: metabolite orotate; for DLH: peptide DLH; for DLS/SDL/SID: peptide DLS/SDL/SID; for PD: peptide PD; for PEE: peptide PEE; for PVNF: peptide PVNF; for 3-phosphoglycerate: metabolite 3-phosphoglycerate; for ADP-D-glucose: metabolite ADP-D-glucose; for ATP: metabolite ATP; for CDP: metabolite CDP; for CDP / D-sedoheptulose-1/7-phosphate / GMP / Octoluse Bisphosphate / UDP / UMP / UTP / citrate/isocitrate / dGMP/AMP / fumarate / glucose-1/6-phosphate / glycerate / guanine / guanosine / inosine / pyruvate / sarcosine/alanine / succinate/methylmalonic acid / uridine / xanthosine: change in metabolite level after compound treatment; for D-sedoheptulose-1/7-phosphate: metabolite D-sedoheptulose-1/7-phosphate; for FAD: metabolite FAD; for GMP: metabolite GMP; for NAD+: metabolite NAD+; for NADP+: metabolite NADP+; for Octoluse Bisphosphate: metabolite Octoluse Bisphosphate; for Pyroglutamic acid: metabolite Pyroglutamic acid; for UDP-D-glucose: metabolite UDP-D-glucose; for UDP-D-glucuronate: metabolite UDP-D-glucuronate; for UDP-N-acetyl-glucosamine: metabolite UDP-N-acetyl-glucosamine; for UDP: metabolite UDP; for UMP: metabolite UMP; for UTP: metabolite UTP; for a-ketoglutarate: metabolite a-ketoglutarate; for citrate/isocitrate: metabolite citrate/isocitrate; for cytidine: metabolite cytidine; for dATP: metabolite dATP; for dGMP/AMP: metabolite dGMP/AMP; for fumarate: metabolite fumarate; for glucose-1/6-phosphate: metabolite glucose-1/6-phosphate; for glycerate: metabolite glycerate; for guanine: metabolite guanine; for guanosine: metabolite guanosine; for hypoxanthine: metabolite hypoxanthine; for indole: metabolite indole; for inosine: metabolite inosine; for 2_3-Diphosphoglyceric acid / 4-phosphopantothenate / 6-phospho-D-gluconate / FMN / IMP / Pyrophosphate / Sedoheptoluse bisphosphate / cyclic-AMP / glutathione disulfide / lactate / myo-inositol: metabolite level change after treatment; for nicotinate: metabolite nicotinate; for ornithine: metabolite ornithine; for phosphoenolpyruvate: metabolite phosphoenolpyruvate; for pyruvate: metabolite pyruvate; for ribose-phosphate: metabolite ribose-phosphate; for sarcosine/alanine: metabolite sarcosine/alanine; for sn-glycerol-3-phosphate: metabolite sn-glycerol-3-phosphate; for succinate/methylmalonic acid: metabolite succinate/methylmalonic acid; for uridine: metabolite uridine; for xanthosine: metabolite xanthosine
[2] = system: P. falciparum; test: EC50 listed in S2 Table Metabolomics (used to set the concentration tested); type: cell-based; conditions: Plasmodium falciparum; EC50 used for Factor_XEC50 in metabolomics; read-out: EC50_nM

- EC50 [2]: 170 nM
SMILES: COc1ccc(-n2ccnc2SCC(=O)Nc2cc(C)ccc2C)c(OC)c1 [MMV019258]
- Acetyllysine [1]: -0.6249
- N-acetyl-L-ornithine [1]: -0.6242
- N-carbamoyl-L-aspartate [1]: 3.802
- NADPH [1]: -0.4851
- dAMP [1]: -1.834
- dCMP [1]: 0.07117
- dTDP [1]: -1.878
- dTMP [1]: -1.688
- dTTP [1]: -1.338
- dihydroorotate [1]: 5.204
- orotate [1]: -0.1277
- DLH [1]: -0.04693
- DLS/SDL/SID [1]: -0.2869
- PD [1]: -0.04264
- PEE [1]: -0.4454
- PVNF [1]: -2.048
- 3-phosphoglycerate [1]: 0.6242
- ADP-D-glucose [1]: 0.3573
- ATP [1]: 0.2564
- CDP [1]: -1.841
- D-sedoheptulose-1/7-phosphate [1]: -1.029
- FAD [1]: 0.0674
- GMP [1]: 1.676
- NAD+ [1]: 0.1657
- NADP+ [1]: 0.1196
- Octoluse Bisphosphate [1]: -0.03706
- Pyroglutamic acid [1]: 0.9996
- UDP-D-glucose [1]: 0.07144
- UDP-D-glucuronate [1]: -0.1808
- UDP-N-acetyl-glucosamine [1]: -0.2701
- UDP [1]: -2.466
- UMP [1]: -0.6353
- UTP [1]: -1.944
- a-ketoglutarate [1]: 0.866
- citrate/isocitrate [1]: 0.4908
- cytidine [1]: 0.5413
- dATP [1]: 0.5274
- dGMP/AMP [1]: -0.3361
- fumarate [1]: 0.3957
- glucose-1/6-phosphate [1]: 0.221
- glycerate [1]: 0.7468
- guanine [1]: 0.4637
- guanosine [1]: 0.7901
- hypoxanthine [1]: 1.05
- indole [1]: 0.5756
- inosine [1]: 0.8159
- 2_3-Diphosphoglyceric acid [1]: -0.06901
- 4-phosphopantothenate [1]: -0.2542
- 6-phospho-D-gluconate [1]: 0.0357
- FMN [1]: -0.006391
- IMP [1]: 0.3439
- Pyrophosphate [1]: -0.1345
- Sedoheptoluse bisphosphate [1]: -0.0261
- cyclic-AMP [1]: -0.1381
- glutathione disulfide [1]: -0.07054
- lactate [1]: 0.415
- myo-inositol [1]: -0.225
- nicotinate [1]: 0.9606
- ornithine [1]: 0.46
- phosphoenolpyruvate [1]: 0.911
- pyruvate [1]: 0.8605
- ribose-phosphate [1]: 0.2278
- sarcosine/alanine [1]: 0.199
- sn-glycerol-3-phosphate [1]: 0.01743
- succinate/methylmalonic acid [1]: 0.09628
- uridine [1]: 0.32
- xanthosine [1]: 1.135

- EC50 [2]: 268 nM
SMILES: Cc1cc(C)c2c(c1)OCN(Cc1ccccc1Cl)C2 [MMV006558]
- Acetyllysine [1]: -2.938
- N-acetyl-L-ornithine [1]: -1.964
- N-carbamoyl-L-aspartate [1]: -1.702
- NADPH [1]: 1.445
- dAMP [1]: -0.9651
- dCMP [1]: -1.6
- dTDP [1]: -0.8236
- dTMP [1]: -0.6183
- dTTP [1]: -0.3776
- dihydroorotate [1]: -0.3745
- orotate [1]: -1.522
- DLH [1]: -1.617
- DLS/SDL/SID [1]: -1.662
- PD [1]: -0.9196
- PEE [1]: -0.2697
- PVNF [1]: -2.308
- 3-phosphoglycerate [1]: 0.4267
- ADP-D-glucose [1]: 0.5003
- ATP [1]: -0.07449
- CDP [1]: -0.458
- D-sedoheptulose-1/7-phosphate [1]: -0.2481
- FAD [1]: -0.09577
- GMP [1]: -0.6278
- NAD+ [1]: -0.187
- NADP+ [1]: 0.696
- Octoluse Bisphosphate [1]: 0.1942
- Pyroglutamic acid [1]: -0.3768
- UDP-D-glucose [1]: -0.01001
- UDP-D-glucuronate [1]: -0.03433
- UDP-N-acetyl-glucosamine [1]: -0.1316
- UDP [1]: -0.1918
- UMP [1]: -1.063
- UTP [1]: -0.2178
- a-ketoglutarate [1]: -0.938
- citrate/isocitrate [1]: -0.4783
- cytidine [1]: 0.109
- dATP [1]: -0.2852
- dGMP/AMP [1]: -0.5349
- fumarate [1]: -0.8198
- glucose-1/6-phosphate [1]: -0.2057
- glycerate [1]: -0.7466
- guanine [1]: -1.035
- guanosine [1]: -2.479
- hypoxanthine [1]: -0.7995
- indole [1]: -0.5445
- inosine [1]: -0.9523
- 2_3-Diphosphoglyceric acid [1]: 0.34
- 4-phosphopantothenate [1]: -0.8939
- 6-phospho-D-gluconate [1]: 0.2839
- FMN [1]: -0.2862
- IMP [1]: -0.2354
- Pyrophosphate [1]: 0.3685
- Sedoheptoluse bisphosphate [1]: 0.2016
- cyclic-AMP [1]: -0.8187
- glutathione disulfide [1]: -0.2625
- lactate [1]: -0.7314
- myo-inositol [1]: -0.7596
- nicotinate [1]: -0.1344
- ornithine [1]: -0.1775
- phosphoenolpyruvate [1]: 0.3748
- pyruvate [1]: -0.4201
- ribose-phosphate [1]: -0.1559
- sarcosine/alanine [1]: -0.2827
- sn-glycerol-3-phosphate [1]: 0.1135
- succinate/methylmalonic acid [1]: -0.725
- uridine [1]: -1.514
- xanthosine [1]: -1.032

- EC50 [2]: 216 nM
SMILES: CCOC(=O)c1c(C)n(-c2ccc(Cl)cc2)c2ccc(OC(=O)C=Cc3ccccc3)cc12 [MMV666600]
- Acetyllysine [1]: 0.2658
- N-acetyl-L-ornithine [1]: 0.3826
- N-carbamoyl-L-aspartate [1]: 0.5043
- NADPH [1]: -0.1791
- dAMP [1]: 0.1797
- dCMP [1]: 0.7303
- dTDP [1]: 0.6846
- dTMP [1]: 0.3563
- dTTP [1]: 0.1062
- dihydroorotate [1]: 0.2265
- orotate [1]: 0.0746
- DLH [1]: 0.4837
- DLS/SDL/SID [1]: 0.1278
- PD [1]: 0.2139
- PEE [1]: 0.4962
- PVNF [1]: 0.206
- 3-phosphoglycerate [1]: 0.1223
- ADP-D-glucose [1]: 0.3003
- ATP [1]: 0.3662
- CDP [1]: 0.7598
- D-sedoheptulose-1/7-phosphate [1]: 0.476
- FAD [1]: 0.1354
- GMP [1]: -0.291
- NAD+ [1]: 0.8191
- NADP+ [1]: 0.2752
- Octoluse Bisphosphate [1]: 0.3013
- Pyroglutamic acid [1]: 0.03669
- UDP-D-glucose [1]: 0.1154
- UDP-D-glucuronate [1]: 0.1408
- UDP-N-acetyl-glucosamine [1]: 0.05839
- UDP [1]: 0.7125
- UMP [1]: 0.02013
- UTP [1]: 0.206
- a-ketoglutarate [1]: -0.01449
- citrate/isocitrate [1]: 0.5294
- cytidine [1]: -0.3168
- dATP [1]: 0.2753
- dGMP/AMP [1]: 0.4942
- fumarate [1]: 0.3444
- glucose-1/6-phosphate [1]: 0.5114
- glycerate [1]: 0.0963
- guanine [1]: 0.1348
- guanosine [1]: -0.1252
- hypoxanthine [1]: 0.2037
- indole [1]: -0.0001746
- inosine [1]: 0.0653
- 2_3-Diphosphoglyceric acid [1]: 0.1463
- 4-phosphopantothenate [1]: 0.3013
- 6-phospho-D-gluconate [1]: 0.08781
- FMN [1]: -0.2862
- IMP [1]: 0.3406
- Pyrophosphate [1]: 0.1816
- Sedoheptoluse bisphosphate [1]: 0.1719
- cyclic-AMP [1]: 0.1868
- glutathione disulfide [1]: 0.1725
- lactate [1]: 0.1409
- myo-inositol [1]: -0.8322
- nicotinate [1]: 0.07374
- ornithine [1]: 0.01544
- phosphoenolpyruvate [1]: 0.01685
- pyruvate [1]: -0.07405
- ribose-phosphate [1]: 0.1875
- sarcosine/alanine [1]: -0.13
- sn-glycerol-3-phosphate [1]: -0.02611
- succinate/methylmalonic acid [1]: 0.1082
- uridine [1]: 0.1838
- xanthosine [1]: 0.13
